Assay results from article PMC6216040, “Repurposing of an old drug: In vitro and in vivo efficacies of buparvaquone against Echinococcus multilocularis” (International Journal for Parasitology: Drugs and Drug …, 2018).
Read-outs that look alike come from different tables or passages of the source.

Tested on: E. multilocularis metacestodes
Assay: PGI-assay: drug-induced damage on in vitro cultured metacestodes (Pathogen Box screening cascade and EC50)
Type: cell-based, Echinococcus multilocularis
Conditions: for PGI release, % of the Tx-100 control, 5d / PGI release, % of the Tx-100 control, 12d / cytotoxicity at 10 µM: 10 µM, singlets; for cytotoxicity at 10 µM: Echinococcus multilocularis
[1] = confirmatory screening at 10 µM in triplicates, 5 days of incubation, values as % of Tx-100 control
[2] = confirmatory screening at 10 µM in triplicates, 12 days of incubation, values as % of Tx-100 control
[3] = 120 h, 5 days of incubation, read-out: PGI release, % of the Tx-100 control, 5d
[4] = 288 h, 12 days of incubation, read-out: PGI release, % of the Tx-100 control, 12d

Compound	PGI release, % of the Tx-100 control, 5d (5 days of incubation)	PGI release, % of the Tx-100 control, 12d (12 days of incubation)	further results
c1ccc(Oc2ccc(-c3cc(N4CCNCC4)[nH]n3)cc2)cc1 [MMV687706]	-0.18%	0.70%	
O=C1[C@@H](Oc2ccccc2)[C@@H](c2ccc(Cl)cc2)N1CCn1cnc2c(NCc3ccccc3)ncnc21 [MMV688352]	2.57%	3.05%	
Cc1ncc(-c2ccnc(Nc3ccc(S(C)(=O)=O)cc3)n2)n1C(C)C [MMV676604]	-0.0262%	0.36%	
O=C(Nc1nnc(-c2ccc(Cl)cc2)o1)c1cccc(C(F)(F)F)c1 [MMV102872]	32.35%	28.26%	PGI release, % of Tx-100 control, average, 5d [1]: -0.31%; PGI release, % of Tx-100 control, average, 12d [2]: -1.19%
Cc1cc(C)nc(-n2nc(C)cc2Nc2ccccc2)n1 [MMV062221]	-5.83%	1.28%	
c1ccc(C[C@@H]2CN(c3nccc(Oc4ccc(-n5ccnc5)cc4)n3)CCN2)cc1 [MMV687749]	5.87%	6.61%	
Cc1ccc2[nH]c(C3CCCNC3)c(-c3ccncc3)c2c1 (centres unmarked) [MMV024311]	-0.16%	-1.97%	
COc1cc(C2=NCCN2)ccc1-n1cc(-c2cccc(C3=NCCN3)c2)nn1 [MMV688474]	-0.50%	-0.97%	
Nc1nccc2ccc(Oc3ccncc3)cc12 [MMV026313]	-0.49%	-0.99%	
COc1ccc(-c2cnc3cnc(-c4cccc(OC(C)C)c4)cn23)cc1 [MMV688270]	0.02%	-0.02%	
CC(C)(C)c1cc(C(=O)Nc2cccnc2)cc(C(=O)Nc2cccnc2)c1 [MMV020982]	1.45%	12.41%	
Cc1nc(-c2cccc(NCc3ccccc3)c2)[nH]c1C [MMV023227]	0.40%	0.67%	
COC(=O)c1cccc2oc(-c3cccc(OC)c3NC(=O)c3cc(-c4ccccc4)on3)nc12 [MMV676186]	1.00%	13.03%	
Clc1ccc(Cl)c(CO[C@H]2CCCC[C@@H]2n2ccnc2)c1 [MMV676048]	1.62%	0.30%	
O=C(c1ccco1)N(CCCn1ccnc1)c1nc2c(Cl)cccc2s1 [MMV688936]	-2.60%	13.45%	
O=C(NCCc1ccccc1)c1cc(-c2cccnc2)cnc1NCC1CC1 [MMV026490]	-0.0463%	-0.43%	
CC(=O)NC[C@H]1CN(c2ccc(-c3ccc(CNCc4cnn[nH]4)cc3)c(F)c2)C(=O)O1 [MMV688327, Radezolid, reference compound]			cytotoxicity at 10 µM [3]: -0.89%; cytotoxicity at 10 µM [4]: -1.52%
CN1CCC(c2cc(-c3ccncc3)c(-c3ccc(F)cc3)[nH]2)CC1 [MMV688703]	0.17%	-2.29%	
OC[C@H]1O[C@@H](n2c3ccc(Cl)cc3c3c(-c4cc5ccccc5o4)ncnc32)C(O)[C@H]1O (some centres unmarked) [MMV688921]	-1.03%	0.48%	
Cc1cc(C)c2cc(C(=O)NC3CCCCCCC3)[nH]c2c1 [MMV687146]	-4.26%	-3.34%	
Cc1cc(NC(=O)c2ccc(S(=O)(=O)N(Cc3ccccc3)C(C)C)cc2)no1 [MMV007133]	-0.95%	0.46%	
Brc1cncc(-c2cc(NCCCn3ccnc3)nc(-c3ccccc3)n2)c1 [MMV661713]	-3.38%	-0.86%	
COc1ccc(-c2nc(-c3cccc(NC(=O)Cc4ccc(F)cc4)c3)no2)cc1OC [MMV676571]	-1.41%	1.58%	

Compound	PGI release, % of the Tx-100 control, 5d (5 days of incubation)	PGI release, % of the Tx-100 control, 12d (12 days of incubation)	further results
CCc1nc2ccccc2n1CC(O)COc1cc(C)ccc1Cl (centres unmarked) [MMV676449]	0.81%	2.81%	
CC(C)(C)OC(=O)N1CCN(c2cc(-c3ccc(Oc4ccccc4)cc3)n[nH]2)CC1 [MMV676057]	-3.83%	2.21%	
CC(C)C(C(=O)Nc1ccc(S(=O)(=O)N(C)C)cc1)c1ccc(Cl)cc1 (centres unmarked) [MMV020391]	-0.90%	-4.50%	
CCNC(=O)C(C)Nc1nc(-c2cccnc2)nc2sc(C)c(C)c12 (centres unmarked) [MMV1037162]	0.19%	-2.69%	
CCc1cc(=O)n(C)c(SC(C)C(=O)Nc2ccc(F)cc2)n1 (centres unmarked) [MMV688980]	-0.26%	0.88%	
COc1ccc(Oc2ccc([C@@H](C)N(C)c3ncc4c(N)nc(N)nc4n3)cc2)cc1 [MMV690102]	73.64%	91.71%	PGI release, % of Tx-100 control, average, 5d (1 µM, triplicates, 5 days of incubation): -0.29%; PGI release, % of Tx-100 control, average, 12d (1 µM, triplicates, 12 days of incubation): 5.50%; activity in the screen at 10 μM (confirmed in triplicates, >20% relative PGI release) (10 μM, 5 and 12 days): active; PGI release, % of Tx-100 control, average, 5d [1]: 25.36%; PGI release, % of Tx-100 control, average, 12d [2]: 31.53%
Cc1cc2ccccc2n1CC(=O)N1CC(C(=O)N2CCCCC2)Oc2ccccc21 (centres unmarked) [MMV020520]	-0.40%	-0.48%	
COc1cc(NC(C)CCCN)c2ncccc2c1 (centres unmarked) [MMV000023, Primaquine, reference compound]			cytotoxicity at 10 µM [3]: -0.23%; cytotoxicity at 10 µM [4]: 17.6%
CC1(C)Cc2c(c(N3CCOCC3)nc3snc(Br)c23)CO1 [MMV687794]	-0.77%	-1.36%	
COc1cc(OC)cc(C(=O)NCC2Cc3cc(Cl)cc(-c4ccncc4)c3O2)c1 (centres unmarked) [MMV007471]	1.94%	7.77%	
CN1CCCN(C(c2ccccc2)c2ccc(Cl)cc2)CC1 (centres unmarked) [MMV004168]	-0.40%	76.56%	PGI release, % of Tx-100 control, average, 5d [1]: -1.18%; PGI release, % of Tx-100 control, average, 12d [2]: 4.34%
Cc1cc(C)cc(COc2ccc3c(C)c(CCC(=O)O)c(=O)oc3c2C)c1 [MMV676476]	0.11%	10.97%	
COc1ccc(-c2cnc3ccc(NCc4ccc(S(N)(=O)=O)cc4)nn23)cn1 [MMV010545]	-0.28%	-0.35%	
O=C(c1cc2ccccc2o1)N1CCN(Cc2ccc3c(c2)OCO3)CC1 [MMV676520]	-0.72%	-0.39%	
COc1ccccc1C(C)NCC(=O)Nc1cc(C(F)(F)F)ccc1Cl (centres unmarked) [MMV020321]	0.0279%	2.67%	
COc1cc(C2=NCCN2)cc2cc(-c3ccc(C4=NCCN4)cc3)oc12 [MMV688362]	0.03%	0.64%	
Cc1nc(-c2ccccn2)nc(N2CCC(Cc3ccccc3)C2)c1Cl (centres unmarked) [MMV659004]	11.75%	58.47%	PGI release, % of Tx-100 control, average, 5d [1]: 2.44%; PGI release, % of Tx-100 control, average, 12d [2]: 11.08%
Cc1ccccc1CN1CCC(O)(c2ccc(Cl)c(C(F)(F)F)c2)CC1 [MMV688846]	6.92%	5.57%	
O=C(Nc1ccc(N2CCNCC2)nc1)c1oc(-c2ccccc2)nc1C(F)(F)F [MMV024937]	14.66%	18.16%	
COc1ccc(C(=N)N)cc1-c1cn(-c2ccc(C(=N)N)cc2)nn1 [MMV675998]	-0.22%	0.24%	
COc1cncc(-c2cncc(N3CCN(c4ccncc4)CC3)n2)c1 [MMV085071]	0.27%	0.48%	
COc1ccc(N(CCc2cccc(C)n2)C(=O)C2CCCCC2)cc1 [MMV675996]	0.13%	-0.16%	
